Results published in US20070275962A1, “Heterobicyclic Compounds as Pharmaceutically Active Agents” (GPC BIOTECH AG, priority 2003, published 2007).

Experiments:
[1] = target: T1, mycobacterial protein kinase G (PknG) (Mycobacterium tuberculosis, UniProt P9WI73); assay: biochemical; details: read-out: Inhibition of PknG (IC50, [μM])
T1 construct: GST; made in house; host or cells: E. coli BL21

CK1-alpha GST = target: T2, CK1-alpha GST (Homo sapiens, UniProt P48729); assay: General kinase assay: CK1-alpha; assay type: biochemical; details: concentration 10 μM; read-out: Inhibitory effect on Target CK1-alpha GST
T2 construct: GST
Protocol: (§1) General Assay Protocol for all Kinases [[[…]]] [[[…]]] Reaction Buffer: Final Assay Concentrations: [[[…]]] Pipetting Sequence: • 1) Add 8 μl 50 μM MBP in Reaction Buffer to each well of Assay Plate • 2) Add 10 μl 500 mM EDTA in H2O to C- wells • 3) Add 8 μl 62.5 μCi/ml Adenosine 5'-[γ-^33P]triphosphate+5 μM ATP in Reaction Buffer to each well • 4) Add 8 μl 5 fold concentrated inhibitor in 5% DMSO in Reaction Buffer to each well except to C- and C+ wells • 5) Add 8 μl 5% DMSO in Reaction Buffer to C- and C+ wells • 6) Add 8 μl 5 fold concentrated kinase in Reaction Buffer to each well • 7) Incubate 1 hr at room temperature • 8) Add 10 μl 50 mM EDTA in H2O to each well except to C- wells • 9) Prepare MAPH plates by adding 200 μl 0.75% H3PO4 to each well • 10) Exhaust 0.75% H3PO4 using Millipore vacuum station • 11) Add 60 μl 0.75% H3PO4 to each well of MAPH Filter Plate • 12) Transfer 30 μl sample per well from Assay Plate to corresponding well of MAPH Filter Plate • 13) Incubate 30 min at room temperature • 14) Wash each well of MAPH Filter Plates 3× with 200 μl 0.75% H3PO4 using Millipore vacuum station • 15) Add 20 μl Szintilation Liquid to each well of MAPH Filter Plate • 16) Seal MAPH Filter Plate • 17) Store MAPH Filter Plate 30 min in darkness • 18) Quantify radioactivity

SRPK1 GST = target: T3, SRPK1 GST (Homo sapiens, UniProt Q96SB4); assay: General kinase assay: SRPK1; assay type: biochemical; details: concentration 10 μM; read-out: Inhibitory effect on Target SRPK1 GST
T3 construct: GST
Protocol: as §1

RICK-STREP 1 = target: T4, RICK-STREP 1 (Homo sapiens, UniProt O43353); assay: General kinase assay: RICK; assay type: biochemical; details: concentration 10 μM; read-out: Inhibitory effect on Target RICK-STREP 1
T4 construct: Strep
Protocol: as §1

PDGFRbeta GST = target: T5, PDGFRbeta GST (Homo sapiens, UniProt P09619); assay: General kinase assay: PDGFRbeta; assay type: biochemical; details: concentration 10 μM; read-out: Inhibitory effect on Target PDGFRbeta GST
T5 construct: GST
Protocol: as §1

CDK2/CycA = CDK2/CycA (Homo sapiens, UniProt P24941); assay: General kinase assay: CDK2/CycA; assay type: biochemical; details: concentration 10 μM; read-out: Inhibitory effect on Target CDK2/CycA
Protocol: as §1

GSK-3beta HIS = target: T6, GSK-3beta HIS (Homo sapiens, UniProt P49841); assay: General kinase assay: GSK-3beta; assay type: biochemical; details: concentration 10 μM; read-out: Inhibitory effect on Target GSK-3beta HIS
T6 construct: His
Protocol: as §1

T1 sequence (P9WI73 whole entry): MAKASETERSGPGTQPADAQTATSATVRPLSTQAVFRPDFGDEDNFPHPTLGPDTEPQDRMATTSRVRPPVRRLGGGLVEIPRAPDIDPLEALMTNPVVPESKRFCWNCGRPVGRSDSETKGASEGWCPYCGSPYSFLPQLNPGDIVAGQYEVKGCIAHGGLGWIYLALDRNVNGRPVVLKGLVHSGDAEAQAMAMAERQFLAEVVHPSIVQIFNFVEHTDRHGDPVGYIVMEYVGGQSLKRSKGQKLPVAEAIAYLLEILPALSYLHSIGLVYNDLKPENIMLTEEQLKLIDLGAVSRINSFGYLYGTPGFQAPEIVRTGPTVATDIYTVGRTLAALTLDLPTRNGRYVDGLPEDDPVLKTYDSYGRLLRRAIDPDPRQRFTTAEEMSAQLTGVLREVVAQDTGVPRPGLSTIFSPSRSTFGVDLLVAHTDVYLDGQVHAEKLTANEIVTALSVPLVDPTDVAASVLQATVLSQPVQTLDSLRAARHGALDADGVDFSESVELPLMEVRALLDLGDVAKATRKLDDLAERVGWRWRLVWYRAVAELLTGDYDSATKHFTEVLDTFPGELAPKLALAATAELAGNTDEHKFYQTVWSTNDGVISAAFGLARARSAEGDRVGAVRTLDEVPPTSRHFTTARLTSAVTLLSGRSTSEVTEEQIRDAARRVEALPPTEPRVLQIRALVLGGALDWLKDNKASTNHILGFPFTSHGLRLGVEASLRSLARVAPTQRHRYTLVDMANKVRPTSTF
T4 sequence (O43353 whole entry): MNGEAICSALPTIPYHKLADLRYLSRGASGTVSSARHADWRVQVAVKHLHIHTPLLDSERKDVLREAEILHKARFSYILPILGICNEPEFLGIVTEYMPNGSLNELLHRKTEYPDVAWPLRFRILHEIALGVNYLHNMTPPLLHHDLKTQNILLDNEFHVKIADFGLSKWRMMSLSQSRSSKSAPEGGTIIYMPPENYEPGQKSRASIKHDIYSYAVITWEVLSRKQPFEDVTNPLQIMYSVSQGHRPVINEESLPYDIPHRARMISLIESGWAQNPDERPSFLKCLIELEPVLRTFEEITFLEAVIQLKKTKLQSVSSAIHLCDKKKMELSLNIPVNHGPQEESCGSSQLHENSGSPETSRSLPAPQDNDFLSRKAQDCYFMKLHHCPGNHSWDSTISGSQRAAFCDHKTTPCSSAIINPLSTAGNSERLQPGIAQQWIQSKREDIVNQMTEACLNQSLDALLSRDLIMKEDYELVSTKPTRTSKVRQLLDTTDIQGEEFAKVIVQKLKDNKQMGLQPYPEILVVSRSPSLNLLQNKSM
T3 sequence (Q96SB4 whole entry): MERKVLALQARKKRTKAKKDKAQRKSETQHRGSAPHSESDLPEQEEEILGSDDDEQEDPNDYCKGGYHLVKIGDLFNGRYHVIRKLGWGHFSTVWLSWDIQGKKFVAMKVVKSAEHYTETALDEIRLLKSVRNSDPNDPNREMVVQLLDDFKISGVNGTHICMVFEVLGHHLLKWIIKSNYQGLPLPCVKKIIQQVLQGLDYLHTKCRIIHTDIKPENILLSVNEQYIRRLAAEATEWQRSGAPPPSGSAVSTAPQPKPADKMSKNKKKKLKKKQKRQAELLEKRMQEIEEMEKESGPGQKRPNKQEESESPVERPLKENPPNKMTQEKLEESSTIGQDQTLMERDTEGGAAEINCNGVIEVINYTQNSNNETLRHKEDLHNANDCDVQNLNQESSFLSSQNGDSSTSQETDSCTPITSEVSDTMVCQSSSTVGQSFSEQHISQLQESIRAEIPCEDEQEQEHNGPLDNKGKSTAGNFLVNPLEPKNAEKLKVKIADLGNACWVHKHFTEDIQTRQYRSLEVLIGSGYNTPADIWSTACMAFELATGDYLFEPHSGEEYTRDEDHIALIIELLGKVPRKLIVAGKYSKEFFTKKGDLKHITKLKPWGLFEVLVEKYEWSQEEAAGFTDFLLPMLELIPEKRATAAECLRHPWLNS
T6 sequence (P49841 whole entry): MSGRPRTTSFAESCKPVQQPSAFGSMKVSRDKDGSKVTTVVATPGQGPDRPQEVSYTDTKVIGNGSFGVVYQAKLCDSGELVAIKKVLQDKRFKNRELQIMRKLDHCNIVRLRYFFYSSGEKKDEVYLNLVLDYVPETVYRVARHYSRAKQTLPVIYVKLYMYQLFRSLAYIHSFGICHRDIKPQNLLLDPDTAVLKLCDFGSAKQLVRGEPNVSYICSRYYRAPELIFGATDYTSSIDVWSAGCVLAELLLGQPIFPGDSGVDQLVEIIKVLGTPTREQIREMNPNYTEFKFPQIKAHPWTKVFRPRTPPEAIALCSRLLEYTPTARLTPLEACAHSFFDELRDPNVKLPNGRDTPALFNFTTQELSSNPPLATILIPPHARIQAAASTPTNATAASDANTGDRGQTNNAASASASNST
T2 sequence (P48729 whole entry): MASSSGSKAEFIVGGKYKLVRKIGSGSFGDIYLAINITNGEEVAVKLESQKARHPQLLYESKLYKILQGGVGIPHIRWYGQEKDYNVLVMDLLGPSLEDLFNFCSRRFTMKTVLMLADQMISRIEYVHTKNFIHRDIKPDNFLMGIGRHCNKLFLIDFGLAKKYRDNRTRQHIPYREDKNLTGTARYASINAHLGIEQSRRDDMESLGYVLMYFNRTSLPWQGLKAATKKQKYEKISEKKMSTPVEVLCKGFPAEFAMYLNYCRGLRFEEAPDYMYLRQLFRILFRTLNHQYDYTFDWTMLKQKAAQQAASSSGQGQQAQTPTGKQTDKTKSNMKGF
T5 sequence (P09619 33-1106): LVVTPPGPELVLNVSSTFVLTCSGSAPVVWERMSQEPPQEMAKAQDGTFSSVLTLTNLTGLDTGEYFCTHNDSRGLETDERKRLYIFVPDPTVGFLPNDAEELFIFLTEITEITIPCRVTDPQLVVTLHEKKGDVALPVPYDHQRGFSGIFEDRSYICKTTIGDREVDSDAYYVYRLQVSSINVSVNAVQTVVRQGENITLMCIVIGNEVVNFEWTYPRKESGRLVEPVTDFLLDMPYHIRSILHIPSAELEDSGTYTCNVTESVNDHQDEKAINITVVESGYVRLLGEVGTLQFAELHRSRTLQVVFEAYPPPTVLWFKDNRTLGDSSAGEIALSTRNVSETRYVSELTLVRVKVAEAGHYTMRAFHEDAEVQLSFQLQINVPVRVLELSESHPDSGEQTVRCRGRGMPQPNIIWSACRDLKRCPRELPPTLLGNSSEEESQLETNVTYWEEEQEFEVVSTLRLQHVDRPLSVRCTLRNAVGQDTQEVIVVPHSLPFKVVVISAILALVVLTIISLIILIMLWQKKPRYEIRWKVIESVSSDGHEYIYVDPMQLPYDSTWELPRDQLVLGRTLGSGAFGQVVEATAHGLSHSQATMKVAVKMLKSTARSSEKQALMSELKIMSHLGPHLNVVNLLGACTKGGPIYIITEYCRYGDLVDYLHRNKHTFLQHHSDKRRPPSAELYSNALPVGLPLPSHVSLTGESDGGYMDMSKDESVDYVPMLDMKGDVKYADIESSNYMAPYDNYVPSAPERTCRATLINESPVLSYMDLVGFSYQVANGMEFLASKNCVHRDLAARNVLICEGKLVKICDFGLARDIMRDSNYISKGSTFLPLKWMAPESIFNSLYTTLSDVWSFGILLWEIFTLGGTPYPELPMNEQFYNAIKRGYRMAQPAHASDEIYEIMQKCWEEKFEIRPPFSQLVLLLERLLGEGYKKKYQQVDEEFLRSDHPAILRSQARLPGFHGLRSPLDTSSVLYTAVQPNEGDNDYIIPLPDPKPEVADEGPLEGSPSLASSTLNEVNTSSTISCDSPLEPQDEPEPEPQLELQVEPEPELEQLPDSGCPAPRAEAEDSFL

NC(=O)c1c(NC(=O)C2CC2)sc2cc(OCC(=O)NCCO)ccc12 [Compound A8, 2-(Cyclopropanecarbonyl-amino)-6-[(2-hydroxy-ethylcarbamoyl)-methoxy]-benzo[b]thiophene-3-carboxylic acid amide]
IC50 [1]: 0.1 to 1 µM

CCN(CC)C(=O)c1cc2c(C(N)=O)c(NC(=O)C3CC3)sc2cc1O [Compound A17, 2-(Cyclopropanecarbonyl-amino)-6-hydroxy-benzo[b]thiophene-3,5-dicarboxylic acid 3-amide-5-diethylamid]
IC50 [1]: 1.1 to 10 µM

NC(=O)c1c(NC(=O)C2CC2)sc2cc(OCCO)ccc12 [Compound A20, 2-(Cyclopropanecarbonyl-amino)-6-(2-hydroxy-ethoxy)-benzo[b]thiophene-3-carboxylic acid amide]
IC50 [1]: 0.1 to 1 µM

NC(=O)c1c(NC(=O)C2CC2)sc2c(Br)c(O)c(Br)cc12 [Compound A38, 5,7-Dibromo-2-(cyclopropanecarbonyl-amino)-6-hydroxy-benzo[b]thiophene-3-carboxylic acid amide]
IC50 [1]: < 0.1 µM

NC(=O)c1c(NC(=O)C2CC2)sc2c1CCOC2 [Compound B1, 2-(Cyclopropanecarbonyl-amino)4,7-dihydro-5H-thieno[2,3-c]pyran-3-carboxylic acid amide]
IC50 [1]: 0.1 to 1 µM

CC(C)C(=O)Nc1sc2c(c1C(N)=O)CCOC2 [Compound B2, 2-Isobutyrylamino-4,7-dihydro-5H-thieno[2,3-c]pyran-3-carboxylic acid amide]
IC50 [1]: > 10 µM

NC(=O)c1c(NC(=O)C2CCCC2)sc2c1CCOC2 [Compound B10, 2-(Cyclopentanecarbonyl-amino)-4,7-dihydro-5H-thieno[2,3-c]pyran-3-carboxylic acid amide]
IC50 [1]: 1.1 to 10 µM

CCC(C)C(=O)Nc1sc2c(c1C(N)=O)CCOC2 (stereo not drawn) [Compound B14, 2-(2-Methyl-butyrylamino)-4 ,7-dihydro-5H-thieno[2,3-c]pyran-3-carboxylic acid amide]
IC50 [1]: > 10 µM

NC(=O)c1c(NC(=O)C2CCC2)sc2c1CCOC2 [Compound B15, 2-(Cyclobutanecarbonyl-amino)-4,7-dihydro-5H-thieno[2,3-c]pyran-3-carboxylic acid amide]
IC50 [1]: 1.1 to 10 µM

CC=CC(=O)Nc1sc2c(c1C(N)=O)CCOC2 [Compound B16, 2-But-2-enoylamino-4,7-dihydro-5H-thieno[2,3-c]pyran-3-carboxylic acid amide]
IC50 [1]: 1.1 to 10 µM

CC(C)=CC(=O)Nc1sc2c(c1C(N)=O)CCOC2 [Compound B17, 2-(3-Methyl-but-2-enoylamino)-4,7-dihydro-5H-thieno[2,3-c]pyran-3-carboxylic acid amide]
IC50 [1]: 1.1 to 10 µM

CC(C)(C)C(=O)Nc1sc2c(c1C(N)=O)CCOC2 [Compound B18, 2-(2,2-Dimethyl-propionylamino)-4,7-dihydro-5H-thieno[2,3-c]pyran-3-carboxylic acid amide]
IC50 [1]: > 10 µM

NC(=O)c1c(NC(=O)Nc2ccncc2)sc2c1CCOC2 [Compound B73, 2-(3-Pyridin-4-yl-ureido]-4,7-dihydro-5H-thieno[2,3-c]pyran-3-carboxylic acid amide]
inhibition at 10 µM (CK1-alpha GST): > 50% | inhibition at 10 µM (SRPK1 GST): > 50% | inhibition at 10 µM (RICK-STREP 1): > 50%

NC(=O)c1c(NC(=O)NCCc2cccs2)sc2c1CCOC2 [Compound B75, 2-[3-(2-Thiophen-2-yl-ethyl)-ureido]-4,7-dihydro-5H-thieno[2,3-c]pyran-3-carboxylic acid amide]
IC50 [1]: 0.1 to 1 µM

CCOC(=O)N1CCC(NC(=O)Nc2sc3c(c2C(N)=O)CCOC3)CC1 [Compound B181, 4-[3-(3-Carbamoyl-4,7-dihydro-5H-thieno[2,3-c]pyran-2-yl)-ureido]-piperidine-1-carboxylic-acid ethyl ester]
IC50 [1]: 1.1 to 10 µM

NC(=O)c1c(NC(=O)C2CC2)sc2c1CC[S+]([O-])C2 (stereo not drawn) [Compound C2, 2-(Cyclopropanecarbonyl-amino)-6-oxo-4,5,6,7-tetrahydro-6λ^4-thieno[2,3-c]thiopyran-3-carboxylic acid amide]
IC50 [1]: > 10 µM

Cc1ccccc1CNC(=O)Nc1sc2c(c1C(N)=O)CCSC2 [Compound C33, 2-[3-(2-Methyl-benzyl)-ureido]-4,7-dihydro-5H-thieno[2,3-c]thiopyran-3-carboxylic acid amide]
IC50 [1]: > 10 µM

NC(=O)c1c(NC(=O)Nc2ccc(F)cc2)sc2c1CCSC2 [Compound C45, 2-[3-(4-Fluoro-phenyl)-ureido]-4,7-dihydro-5H-thieno[2,3-c]thiopyran-3-carboxylic acid amide]
inhibition at 10 µM (PDGFRbeta GST): > 50% | IC50 [1]: 0.1 to 1 µM | inhibition at 10 µM (CDK2/CycA): > 50% | inhibition at 10 µM (SRPK1 GST): > 50% | inhibition at 10 µM (GSK-3beta HIS): > 50% | inhibition at 10 µM (RICK-STREP 1): > 50%

NC(=O)c1c(NC(=O)Nc2ccc(Oc3ccccc3)cc2)sc2c1CCSC2 [Compound C49, 2-[3-(4-Phenoxy-phenyl)-ureido]-4,7-dihydro-5H-thieno[2,3-c]thiopyran-3-carboxylic acid amide]
IC50 [1]: 1.1 to 10 µM

NC(=O)c1c(NC(=O)C2CCC2)sc2c1CCCC2 [Compound D9, 2-(Cyclobutanecarbonylamino)-4,5,6,7-tetrahydro-benzo[b]thiophene-3-carboxylic acid amide]
IC50 [1]: 1.1 to 10 µM

C=CCNC(=S)Nc1sc2c(c1C(N)=O)CCCC2 [Compound D32, 2-(3-Allyl-thioureido)-4,5,6,7-tetrahydro-benzo[b]thiophene-3-carboxylic acid amide]
IC50 [1]: 1.1 to 10 µM

CC1CCc2sc(NC(=O)C3CC3)c(C(N)=O)c2C1 (stereo not drawn) [Compound D37, 2-(Cyclopropanecarbonyl-amino)-5-methyl-4,5,6,7-tetrahydro-benzo[b]thiophene-3-carboxylic acid amide]
IC50 [1]: < 0.1 µM

NC(=O)c1c(NC(=O)C2CC2)sc2c1CCC/C2=N\OCc1ccccc1 [Compound D72, E-7-Benzyloxyimino-2-(cyclopropanecarbonyl-amino)-4,5,6,7-tetrahydro-benzo[b]thiophene-3-carboxylic acid amide]
IC50 [1]: < 0.1 µM

CO/N=C1/CCCc2c1sc(NC(=O)C1CC1)c2C(N)=O [Compound D88, Z-2-(Cyclopropanecarbonyl-amino)-7-methoxyimino-4,5,6,7-tetrahydro-benzo[b]thiophene-3-carboxylic acid amide]
IC50 [1]: < 0.1 µM

CC1OCc2sc(NC(=O)C3CC3)c(C(N)=O)c21 (stereo not drawn) [Compound D96, 2-(Cyclopropanecarbonyl-amino)-4-methyl-4,6-dihydro-thieno[2,3-c]furan-3-carboxylic acid amide]
IC50 [1]: 1.1 to 10 µM

COc1ccc(NC(=O)Nc2sc3c(c2C(N)=O)CCC(=O)C3)cc1 [Compound D106, 2-[3-(4-Methoxy-phenyl)-ureido]-6-oxo-4,5,6,7-tetrahydro-benzo[b]thiophene-3-carboxylic acid amide]
IC50 [1]: 0.1 to 1 µM

NC(=O)c1c(NC(=O)C2CC2)sc2c1CCC(=NO)C2 [Compound D134, 2-(Cyclopropanecarbonyl-amino)-6-hydroxyimino-4,5,6,7-tetrahydro-benzo[b]thiophene-3-carboxylic acid amide]
inhibition at 10 µM (CK1-alpha GST): > 50% | inhibition at 10 µM (GSK-3beta HIS): > 50% | inhibition at 10 µM (RICK-STREP 1): > 50%

NC(=O)c1c(NC(=O)Nc2ccc(I)cc2)sc2c1CCC1(C2)OCCO1 [Compound D175, 2-({[(4-Iodophenyl)amino]carbonyl}amino)-4,7-dihydro-5H-spiro[1-benzothiophene-6,2′-[1,3]dioxolane]-3-carboxamide]
IC50 [1]: 0.1 to 1 µM

NC(=O)c1c(NC(=O)C2CC2)sc2c1CCC2 [Compound D196, 2-(Cyclopropanecarbonyl-amino)-5,6-dihydro-4H-cyclopenta[b]thiophene-3-carboxylic acid amide]
IC50 [1]: < 0.1 µM

NC(=O)c1c(NC(=O)Nc2ccc3c(c2)OCO3)sc2c1CCC(O)C2 (stereo not drawn) [Compound D212, 2-(3-Benzo[1,3]dioxol-5-yl-ureido)-6-hydroxy-4,5,6,7-tetrahydro-benzo[b]thiophene-3-carboxylic acid amide]
IC50 [1]: 0.1 to 1 µM
